Test results taken from patent US6939680B2 (H. Lundbeck A/S, priority 1990, dated 2005).
Where two headings read alike, the source gives them in different places.

Columns and labels:
[1] = target: T1, human dopamine D1 receptor clone GL-30 (dopamine D1β receptor) (Homo sapiens, UniProt P21918); assay: [3H]SCH-23390 radioligand binding (saturation and competition) to membranes of Cos-7 cells transfected with clone GL-30
T1 construct: expressed in transfected cells; host or cells: Cos-7 cells, transient transfection with pcEXV-3 carrying GL-30
T1 sequence (P21918 whole entry): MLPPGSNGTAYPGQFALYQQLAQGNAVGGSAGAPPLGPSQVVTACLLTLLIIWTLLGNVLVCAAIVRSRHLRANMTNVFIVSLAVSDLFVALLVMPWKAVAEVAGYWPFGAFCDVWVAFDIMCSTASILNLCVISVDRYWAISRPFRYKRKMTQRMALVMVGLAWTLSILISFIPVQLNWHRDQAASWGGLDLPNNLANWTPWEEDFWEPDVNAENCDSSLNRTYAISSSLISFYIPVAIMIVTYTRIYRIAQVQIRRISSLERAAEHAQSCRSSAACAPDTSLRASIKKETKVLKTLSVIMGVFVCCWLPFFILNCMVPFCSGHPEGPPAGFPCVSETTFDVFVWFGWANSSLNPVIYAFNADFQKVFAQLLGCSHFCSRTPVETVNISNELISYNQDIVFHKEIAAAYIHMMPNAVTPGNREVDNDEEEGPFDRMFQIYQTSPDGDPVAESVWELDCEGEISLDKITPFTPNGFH

[2] = system: DA1 receptor; conditions: clinical trials; cited from earlier work
[3] = competition binding, GL-30 in Cos-7 membranes

potency/affinity in displacing [3H]SCH-23390 binding (in words) [1, 3]	Compound	potency/affinity in displacing [3H]SCH-23390 binding (in words) [1]	also measured
	COc1ccc2c(c1O)-c1c3c(cc4c1[C@H](C2)N(C)CC4)OCO3 [bulbocapnine]		Ki values compared with those reported for the D1 receptor ([1]; versus native rat and human brain tissues and Cos-7 cells transfected with the previously cloned D1 gene): comparable
	cis-flupenthixol	most potent	
inactive	NC[C@H](O)c1ccc(O)c(O)c1 [norepinephrine]		
low affinity	CCN1CCC[C@H]1CNC(=O)c1cc(S(N)(=O)=O)ccc1OC [(−) sulpiride]		
	Oc1ccc(C2CNCCc3c2cc(O)c(O)c3Cl)cc1 (stereo not drawn) [fenoldopam]		renal vasodilatory action [2]: potent renal vasodilatory action
	CCCN1CCC[C@@H]2Cc3n[nH]cc3C[C@H]21 [quinpirole]	low affinity	
